Changes are numbered by the printed parent chain. Where “and” joins values, the source holds several entries; their conditions need not be identical. Equal values may be shown once. Read-outs that look alike come from different tables or passages of the source.
What was measured:
Format in all cases: cell-based
hTA1 C178S = target: T1, hTA1 C178S (Homo sapiens, UniProt Q96RJ0, C178S); experiment: GloSensor cAMP accumulation assay, C178S mutant; conditions: for Normalized Luminescence Counts: C178S (N=2), log[Agonist]
T1 construct: expressed in transfected cells; host or cells: HEK293T
T1 sequence (Q96RJ0 1-339 C178S): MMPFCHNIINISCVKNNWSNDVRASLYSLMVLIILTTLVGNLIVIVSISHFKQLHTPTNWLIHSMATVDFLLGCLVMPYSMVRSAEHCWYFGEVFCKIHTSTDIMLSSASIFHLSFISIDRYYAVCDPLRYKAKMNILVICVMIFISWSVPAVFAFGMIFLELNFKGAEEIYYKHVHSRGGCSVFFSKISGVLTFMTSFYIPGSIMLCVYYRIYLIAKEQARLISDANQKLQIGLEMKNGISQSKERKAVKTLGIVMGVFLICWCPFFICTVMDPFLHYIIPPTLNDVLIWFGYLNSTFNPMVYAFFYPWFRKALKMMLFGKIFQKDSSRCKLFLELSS

hTA1 b2N = target: T2, hTA1 b2N (Homo sapiens, UniProt Q96RJ0); experiment: GloSensor cAMP accumulation assay, b2N construct; conditions: b2N, n=2
T2 construct: read by me as the first 25 residues of β2AR (N); expressed in transfected cells; host or cells: HEK293T

hTA1 W264F = target: T3, hTA1 W264F (Homo sapiens, UniProt Q96RJ0, W264F); experiment: GloSensor cAMP accumulation assay, W264F mutant; conditions: W264F;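 also: cells transiently transfected with receptor plus GloSensor, luminescence read 30 min after agonist addition at room temperature, concentration-response curves fitted by log(agonist) vs response regression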
T3 construct: expressed in transfected cells; host or cells: HEK293T
T3 sequence (Q96RJ0 1-339 W264F): T1 sequence (Q96RJ0 1-339 C178S) with S178C, W264F

hTA1 T271N = target: T4, hTA1 T271N (Homo sapiens, UniProt Q96RJ0, T271N); experiment: GloSensor cAMP accumulation assay, T271N mutant
T4 construct: expressed in transfected cells; host or cells: HEK293T
T4 sequence (Q96RJ0 1-339 T271N): T1 sequence (Q96RJ0 1-339 C178S) with S178C, T271N

hTA1 C13S = target: T5, hTA1 C13S (Homo sapiens, UniProt Q96RJ0, C13S); experiment: GloSensor cAMP accumulation assay, C13S mutant; conditions: C13S, n=2
T5 construct: expressed in transfected cells; host or cells: HEK293T
T5 sequence (Q96RJ0 1-339 C13S): T1 sequence (Q96RJ0 1-339 C178S) with C13S, S178C

hTA1 I290N = target: T6, hTA1 I290N (Homo sapiens, UniProt Q96RJ0, I290N); experiment: GloSensor cAMP accumulation assay, I290N mutant;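 also: cells transiently co-expressing hTA1 and the GloSensor cAMP biosensor, luminescence read 30 min after compound addition at room temperature, efficacy scaled to the maximal β-PEA response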
T6 construct: expressed in transfected cells; host or cells: HEK293T
T6 sequence (Q96RJ0 1-339 I290N): T1 sequence (Q96RJ0 1-339 C178S) with S178C, I290N

[1] = read-out: Span ± SEM (Emax normalized to β-PEA)

T2 sequence (Q96RJ0 with tags, fused parts or gaps): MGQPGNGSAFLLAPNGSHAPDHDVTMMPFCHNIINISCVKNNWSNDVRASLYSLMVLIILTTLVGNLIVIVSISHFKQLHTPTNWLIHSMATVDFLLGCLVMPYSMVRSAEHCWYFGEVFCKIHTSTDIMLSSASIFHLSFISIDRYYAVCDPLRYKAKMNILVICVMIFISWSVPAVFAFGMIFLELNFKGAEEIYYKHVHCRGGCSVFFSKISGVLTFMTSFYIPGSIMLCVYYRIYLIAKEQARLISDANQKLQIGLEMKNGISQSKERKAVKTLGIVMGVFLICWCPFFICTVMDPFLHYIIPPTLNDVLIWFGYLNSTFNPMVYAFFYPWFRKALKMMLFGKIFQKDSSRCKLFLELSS

CN1CC2c3ccccc3Oc3ccc(Cl)cc3C2C1 (stereo not shown) [asenapine]
Normalized Luminescence Counts (hTA1 C178S; Asenapine, M -5): 75.4368 and 92.2127 and 77.6331 and 138.575 and 114.073 and 74.6126
Normalized Luminescence Counts (hTA1 C178S; Asenapine, M -5.522): 79.5957 and 78.8948 and 73.2872 and 121.163 and 122.988 and 72.6381
Normalized Luminescence Counts (hTA1 C178S; Asenapine, M -6): 71.3246 and 64.9226 and 70.9975 and 119.907 and 121.163 and 96.5417
Normalized Luminescence Counts (hTA1 C178S; Asenapine, M -6.522): 41.1373 and 42.2588 and 39.3616 and 54.3289 and 32.5494 and 43.2597
ΔpEC50 values (each mutant value - WT average), Mean (hTA1 C178S; C178S, Asenapine): -0.5777 and -0.5455
Emax values, Mean (hTA1 C178S; C178S, Asenapine, per experiment, 3 replicates): 87.2953 and 116.77
EC50 (hTA1 C178S; C178S, Asenapine, per experiment, 3 replicates, read-out: pEC50 values Mean (converted)): 327 nM and 304 nM
EC50 (hTA1 C178S; C178S, n=2, read-out: EC50): 315 nM
Emax (hTA1 C178S; C178S, n=2, read-out: Span ± SEM (Emax normalized to β-PEA)): 102%
Emax (hTA1 C178S; C178S, relative to β-PEA, read-out: Emax): 102%
EC50 (hTA1 b2N; read-out: EC50): 72.8 nM
Emax (hTA1 b2N; [1]): 97.39 ± 0.96%
ΔpEC50 values (each mutant value - WT average), Mean (hTA1 W264F; Asenapine): -2.045 and -2.029
Emax values, Mean (hTA1 W264F; Asenapine, per experiment, 3 replicates): 34.2126 and 58.204
EC50 (hTA1 W264F; Asenapine, per experiment, 3 replicates, read-out: pEC50 values Mean (converted)): 9610 nM and 9250 nM
EC50 (hTA1 W264F; n=2, read-out: EC50): 9430 nM
Emax (hTA1 W264F; n=2, read-out: Span ± SEM (Emax normalized to β-PEA)): 46.2 ± 12%
Emax values of Asenapine (hTA1 T271N; T271N, Mean of one experiment): 142.994 and 100.859
EC50 (hTA1 T271N; T271N, Mean of one experiment, read-out: pEC50 values of Asenapine (converted)): 496 nM and 463 nM
EC50 (hTA1 T271N; T271N, n=2, read-out: EC50): 479 nM
Emax (hTA1 T271N; T271N, n=2, read-out: Span ± SEM (Emax normalized to β-PEA)): 122%
Emax (hTA1 T271N; T271N, relative to β-PEA, read-out: Emax): 122%
ΔEmax values (each mutant value - WT average), T271N, Mean (hTA1 T271N; hTA1 T271N mutant vs WT average, Figure 6B, each line is one experiment (3 replicates)): 54.2867 and 12.1519
EC50 (hTA1 C13S; read-out: EC50): 321 nM
Emax (hTA1 C13S; [1]): 77.1 ± 4.84%
reduction in potency vs wild type (hTA1 I290N; I290N): 4 fold
Emax values of Asenapine (hTA1 I290N; I290N, Mean of one experiment): 77.7708
Emax (hTA1 I290N; I290N, Mean of one experiment, read-out: Emax values of Asenapine): 90.3%
EC50 (hTA1 I290N; I290N, Mean of one experiment, read-out: pEC50 values of Asenapine (converted)): 1390 nM and 721 nM
EC50 (hTA1 I290N; I290N, n=2, read-out: EC50): 1000 nM
Emax (hTA1 I290N; I290N, n=2, read-out: Span ± SEM (Emax normalized to β-PEA)): 84 ± 6.25%
EC50 (hTA1 I290N; I290N, n=2, read-out: pEC50 ± SEM (converted)): 1000 nM
Emax (hTA1 I290N; I290N, relative to β-PEA, read-out: Emax): 84%
ΔEmax values (each mutant value - WT average), I290N, Mean (hTA1 I290N; hTA1 I290N mutant vs WT average, Figure 6B, each line is one experiment (3 replicates)): 1.57 and -10.9365
